pEC50: −log10 of the molar value.

The values below come from US8030354B2, “Substituted biphenyl GPR40 modulators” (Amgen Inc., priority 2007, dated 2011).

Assay [1] has as its target T1, GPR40 (Homo sapiens, UniProt O14842). The assay can be described thus: Cell-based aequorin assay (CHO cells stably expressing GPR40 and aequorin). Also on record: expressed in transfected cells; host or cells: CHO cells stably transfected with GPR40 and aequorin. The following applies: activation of human GPR40, CHO cells, 0.01% HSA. An outline of the steps:
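CHO cells stably co-expressing GPR40 and aequorin, loaded with coelenterazine (1 ug/mL, 2 h, room temperature) in H/HBSS with 20 mM Hepes and 0.01% fatty acid-free HSA. Serially diluted compounds added; luminescence recorded over 20 s. EC50 from dose-response of maximum relative light units.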

The target in assay [2] is T1, GPR40. The assay can be described thus: Inositol phosphate accumulation assay (A9_GPR40 cells). It is filed as cell-based. Also on record: expressed in transfected cells; host or cells: CHO cells stably transfected with GPR40 and aequorin. The following applies: inositol phosphate assay, A9_GPR40 cells, 1 hour; read-out: IP3 EC50. The method, boiled down:
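[^3H] inositol phosphate accumulation was measured by SPA after 1 h compound exposure at 37° C in HBSS/10 mM LiCl containing HSA, ending with a 20 mM formic acid quench. The GPR40-transfected A9 cells had first been labelled overnight (16 h) with 1 μCi/mL ^3H-inositol.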

T1 sequence (O14842 whole entry): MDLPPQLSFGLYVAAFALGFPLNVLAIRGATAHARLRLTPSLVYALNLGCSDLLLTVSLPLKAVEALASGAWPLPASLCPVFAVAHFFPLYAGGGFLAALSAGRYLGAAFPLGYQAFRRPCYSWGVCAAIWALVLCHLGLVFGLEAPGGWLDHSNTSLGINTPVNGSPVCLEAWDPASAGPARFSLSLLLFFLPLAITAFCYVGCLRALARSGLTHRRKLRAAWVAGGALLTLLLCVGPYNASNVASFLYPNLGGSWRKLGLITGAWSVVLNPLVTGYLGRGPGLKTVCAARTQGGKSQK

The pEC50 is the negative decadic logarithm of the EC50, by convention in mol/L. As to `COc1ccc(F)c(-c2ccc(COc3cc(F)cc(C(CC(=O)O)CC4CC4)c3)cc2C2=CCCC2(C)C)c1` (single isomer, unassigned) [Example 89.2, (3R)-4-Cyclopropyl-3-(3-(((2-(5,5-dimethyl-1-cyclopenten-1-yl)-2′-fluoro-5′-(methyloxy)-1,1′-biphenyl-4-yl)methyl)oxy)-5-fluorophenyl)butanoic acid or (3S)-4-cyclopropyl-3-(3-(((2-(5,5-dimethyl-1-cyclopenten-1-yl)-2′-fluoro-5′-(methyloxy)-1,1′-biphenyl-4-yl)methyl)oxy)-5-fluorophenyl)butanoic acid], the pEC50 in assay [1] is 6.00 to 7.00; in assay [2], 7.00 to 8.00.
On the same counts, the results for `COc1ccc(F)c(-c2ccc(COc3cccc(C(CC(=O)O)CC4CC4)c3F)cc2C2CCCC2(C)C)c1` (single isomer, unassigned) [Example 84.3] are 6.00 to 7.00 and greater than 8.00.
`COc1ccc(F)c(-c2ccc(COc3cccc([C@H](C)CC(=O)O)c3)cc2C23CC4CC(CC(C4)C2)C3)c1` (single isomer, unassigned) [Example 64.16, (3R)-3-(3-(((2′-Fluoro-5′-(methyloxy)-2-tricyclo[3.3.1.1˜3,7˜]dec-1-yl-1,1′-biphenyl-4-yl)methyl)oxy)phenyl)butanoic acid or (3S)-3-(3-(((2′-fluoro-5′-(methyloxy)-2-tricyclo[3.3.1.1˜3,7˜]dec-1-yl-1,1′-biphenyl-4-yl)methyl)oxy)phenyl)butanoic acid]: the pEC50 was 6.00 to 7.00 in assay [1] and 7.00 to 8.00 in assay [2].
On the same counts, the results for `CCC(CC(=O)O)c1cc(OCc2ccc(-c3cc(OC)ccc3F)c(C3=CCCC3(C)C)c2)cc(C(F)(F)F)c1` (single isomer, unassigned) [Example 91, (3R)-3-(3-(((2-(5,5-Dimethyl-1-cyclopenten-1-yl)-2′-fluoro-5′-(methyloxy)-1,1′-biphenyl-4-yl)methyl)oxy)-5-(trifluoromethyl)phenyl)pentanoic acid or (3S)-3-(3-(((2-(5,5-dimethyl-1-cyclopenten-1-yl)-2′-fluoro-5′-(methyloxy)-1,1′-biphenyl-4-yl)methyl)oxy)-5-(trifluoromethyl)phenyl)pentanoic acid] are 6.00 to 7.00 and 7.00 to 8.00.
On the same counts, the results for `COc1ccc(F)c(-c2ccc(COc3cccc(C(C)CC(=O)O)c3)cc2C2=CCC(C(C)(C)C)CC2)c1` (single isomer, unassigned) [Example 64.13, (3R)-3-(3-(((2-(4-(1,1-Dimethylethyl)-1-cyclohexen-1-yl)-2′-fluoro-5′-(methyloxy)-1,1′-biphenyl-4-yl)methyl)oxy)phenyl)butanoic acid or (3S)-3-(3-(((2-(4-(1,1-dimethylethyl)-1-cyclohexen-1-yl)-2′-fluoro-5′-(methyloxy)-1,1′-biphenyl-4-yl)methyl)oxy)phenyl)butanoic acid] are 6.00 to 7.00 and 7.00 to 8.00.
Regarding `COc1ccc(F)c(-c2ccc(COc3cccc(C(CC(=O)O)CC4CC4)c3)cc2CC(C)C)c1` (single isomer, unassigned) [Example 69.21, (3R)-4-Cyclopropyl-3-(3-(((2′-fluoro-5′-(methyloxy)-2-(2-methylpropyl)-1,1′-biphenyl-4-yl)methyl)oxy)phenyl)butanoic acid or (3S)-4-cyclopropyl-3-(3-(((2′-fluoro-5′-(methyloxy)-2-(2-methylpropyl)-1,1′-biphenyl-4-yl)methyl)oxy)phenyl)butanoic acid], the pEC50 in assay [1] is 6.00 to 7.00; in assay [2], 7.00 to 8.00.
On the same counts, the results for `COc1ccc(F)c(-c2ccc(COc3cccc([C@@H](CC(=O)O)C4CC4)c3F)cc2[C@H](OC)C(C)(C)OC)c1` (single isomer, unassigned) [Example 83.26] are 6.00 to 7.00 and 7.00 to 8.00.
On the same counts, the results for `COc1ccc(F)c(-c2ccc(COc3cccc([C@@H](CC(=O)O)C4CC4)c3)cc2[C@H]2CCC[C@@H]2C)c1` (single isomer, unassigned) [Example 66.56] are 6.00 to 7.00 and 7.00 to 8.00.
For `COc1cc(-c2ccc(COc3cccc([C@@H](CC(=O)O)C4CC4)c3)cc2C2=CCCC2(C)C)c(F)cn1` (single isomer, unassigned) [Example 66.12, (3S)-3-(3-(3-(5,5-Dimethylcyclopent-1-enyl)-4-(5-fluoro-2-methoxypyridin-4-yl)benzyloxy)phenyl)-3-cyclopropylpropanoic acid or (3R)-3-(3-(3-(5,5-dimethylcyclopent-1-enyl)-4-(5-fluoro-2-methoxypyridin-4-yl)benzyloxy)phenyl)-3-cyclopropylpropanoic acid], the pEC50 in assay [1] is 6.00 to 7.00; in assay [2] it was 7.00 to 8.00.
On the same counts, the results for `COc1cccc(-c2ccc(COc3cccc(C(CC(=O)O)CC4CC4)c3)cc2C2=CCCC2(C)C)c1` (single isomer, unassigned) [Example 69.2, (3R)-4-Cyclopropyl-3-(3-(((2-(5,5-dimethyl-1-cyclopenten-1-yl)-3′-(methyloxy)-1,1′-biphenyl-4-yl)methyl)oxy)phenyl)butanoic acid or (3S)-4-cyclopropyl-3-(3-(((2-(5,5-dimethyl-1-cyclopenten-1-yl)-3′-(methyloxy)-1,1′-biphenyl-4-yl)methyl)oxy)phenyl)butanoic acid] are 6.00 to 7.00 and 7.00 to 8.00.
For `CCOc1ccc(F)c(-c2ccc(COc3cccc([C@@H](CC(=O)O)C4CC4)c3)cc2[C@@H]2CCCC2(C)C)c1` (single isomer, unassigned) [Example 66.25], the pEC50 in assay [1] and in assay [2] was 5.00 to 6.00 in each case.
On to `CO[C@H](c1cc(COc2cccc([C@@H](CC(=O)O)C3CC3)c2F)ccc1-c1cc(F)ccc1F)C(C)(C)C` (single isomer, unassigned) [Example 83.27], for which the figures for the pEC50 in assay [1] and in assay [2] were 6.00 to 7.00 and 7.00 to 8.00, respectively.
As for `COc1cccc(-c2ccc(COc3cccc(C(CC(=O)O)C4CC4)c3)cc2C2=CCCC2(C)C)c1` (single isomer, unassigned) [Example 66.3, (3S)-3-Cyclopropyl-3-(3-(((2-(5,5-dimethyl-1-cyclopenten-1-yl)-3′-(methyloxy)-1,1′-biphenyl-4-yl)methyl)oxy)phenyl)propanoic acid or (3R)-3-cyclopropyl-3-(3-(((2-(5,5-dimethyl-1-cyclopenten-1-yl)-3′-(methyloxy)-1,1′-biphenyl-4-yl)methyl)oxy)phenyl)propanoic acid], in assay [1], the “Aequorin EC50” value was “+++/ ++++”. For the same molecule, the pEC50 in assay [2] is greater than 8.00.
On to `CC[C@H](CC(=O)O)c1cccc(OCc2ccc(-c3cc(OC)ccc3F)c([C@H]3CCCC3(C)C)c2)c1` (single isomer, unassigned) [Example 78.4], for which the figures for the pEC50 in assay [1] and in assay [2] were 7.00 to 8.00 and greater than 8.00, respectively.
On the same counts, the results for `COc1ccc(F)c(-c2cc(F)c(COc3cccc(C(CC(=O)O)CC4CC4)c3F)cc2C2CCCC2(C)C)c1` (single isomer, unassigned) [Example 84.4] are 6.00 to 7.00 and greater than 8.00.
`COc1ccc(F)c(-c2ccc(COc3cccc([C@@H](CC(=O)O)C4CC4)c3)cc2CC(C)C)c1` (single isomer, unassigned) [Example 66.20, (3S)-3-Cyclopropyl-3-(3-(((2′-fluoro-5′-(methyloxy)-2-(2-methylpropyl)-1,1′-biphenyl-4-yl)methyl)oxy)phenyl)propanoic acid or (3R)-3-cyclopropyl-3-(3-(((2′-fluoro-5′-(methyloxy)-2-(2-methylpropyl)-1,1′-biphenyl-4-yl)methyl)oxy)phenyl)propanoic acid]: the values for the pEC50 in assay [1] and in assay [2] were 6.00 to 7.00 and 7.00 to 8.00, respectively.
In the case of `COc1cc(-c2ccc(COc3cccc([C@@H](CC(=O)O)C4CC4)c3F)cc2[C@H]2CCCC2(C)C)c(F)cn1` (single isomer, unassigned) [Example 83.4], the results for the pEC50 in assay [1] and in assay [2] were 7.00 to 8.00 and greater than 8.00, respectively.
With `CC[C@H](CC(=O)O)c1cccc(OCc2ccc(-c3cc(C(F)F)ccc3F)c(C3=CCCC3(C)C)c2)c1F` (single isomer, unassigned) [Example 77.7, (3R)-3-(3-(((5′-(Difluoromethyl)-2-(5,5-dimethyl-1-cyclopenten-1-yl)-2′-fluoro-1,1′-biphenyl-4-yl)methyl)oxy)-2-fluorophenyl)pentanoic acid or (3S)-3-(3-(((5′-(difluoromethyl)-2-(5,5-dimethyl-1-cyclopenten-1-yl)-2′-fluoro-1,1′-biphenyl-4-yl)methyl)oxy)-2-fluorophenyl)pentanoic acid], the values for the pEC50 in assay [1] and in assay [2] were 5.00 to 6.00 and 6.00 to 7.00, respectively.
On the same counts, the results for `COc1ccc(F)c(-c2c(F)cc(COc3cccc([C@@H](CC(=O)O)C4CC4)c3)cc2C2=CCCC2(C)C)c1` (single isomer, unassigned) [Example 66.49, (3S)-3-Cyclopropyl-3-(3-(((2-(5,5-dimethyl-1-cyclopenten-1-yl)-2′,6-difluoro-5′-(methyloxy)-1,1′-biphenyl-4-yl)methyl)oxy)phenyl)propanoic acid or (3R)-3-cyclopropyl-3-(3-(((2-(5,5-dimethyl-1-cyclopenten-1-yl)-2′,6-difluoro-5′-(methyloxy)-1,1′-biphenyl-4-yl)methyl)oxy)phenyl)propanoic acid] are 6.00 to 7.00 and 7.00 to 8.00.
